# Read-outs that look alike come from different tables or passages of the source.
# Key:
# [1] = Hepatic microsomal stability, rat; format: in vitro ADME, rat (Sprague-Dawley)
# Protocol: (§1) Hepatic microsomal assays were performed with 4981, 4985, 4991 and 4999 in human and rat (Sprague-Dawley). Protein concentrations of 0.4 (human) and 0.2 mg/mL (rat) with an NADPH regenerating cofactor system (2.6 mM NADP+, 6.6 mM glucose-6-phosphate, 0.8 U/mL glucose-6-phosphate dehydrogenase, and 6.6 mM magnesium chloride) were used. A 100 μM 20% DMSO/80% acetonitrile working stock of each of the compounds was diluted 100 fold resulting in 1 μM compound/1% final organic reaction concentrations. Time points were removed at 0 and 60 minutes. At each time point, 100 μL of the incubation suspension was added to 200 μL of acetonitrile containing internal standard (tolbutamide), followed by centrifugation at 3,220 rcf for 10 minutes. Two hundred (200)μL of the resulting supernatants were removed, dried under nitrogen and reconstituted in 100 μL of 2 mM ammonium acetate, 0.1% formic acid in 50% methanol prior to analysis by LC/MS/MS. Testosterone and dexamethasone were used as reference compounds.
# [2] = Hepatic microsomal stability, human; format: in vitro ADME
# Protocol: as §1
# [3] = PAMPA, 5 h, 10 μM, pH 7.4
# Protocol: The target concentration in the assay was 10 μM, prepared by diluting (1000-fold) the 10 mM stock solutions in DMSO into PBS, pH 7.4. The final DMSO concentration was 0.1%. The 10 μM solutions were added, 300 μL, to wells in the donor plate. The receiver plate, which contained 200 μL of PBS, pH 7.4 per well, was placed in the donor plate and the assembly was incubated for 5 hours at ambient temperature. At the end of the incubation period the plates were separated and the compound concentrations in each solution were determined by LC/MS/MS. The assay was performed in triplicate.
# Where: • C0 is the initial concentration in the donor well (μM) • CD(t) is the concentration in the donor well after incubation (μM) • CA(t) is the concentration in the acceptor well after incubation (μM) • VD is the volume in the donor well (0.3 mL) • VA is the volume in the acceptor well (0.2 mL) • CE is (CD(t)VD+CA(t)VA)/(VD+VA) • A is the filter area (0.3 cm2) • t is the incubation time (18,000 s).
# PC-3 cells = experiment: Cell proliferation study, inhibition of PC-3 cells (MTS); format: cell-based; details: Homo sapiens, 72 hours, read-out: Inhibition Rate %
# Protocol: Inhibition of PC-3 Cells:
# (§2) • Cells: PC-3 cells, ATCC Passage unknown, Mycoplasma free. • Medium: DMEM Medium (GIBCO Cat#11995073) supplemented with 10% fetal bovine serum (Hyclone Cat#SH30396.03). • Seeding: 3,000 cells/well (100 μL) into 96-well plates, incubated overnight at 37° C. in a humidified 5% CO2 atmosphere. • Treatment: Test compounds were first diluted 333-fold in the medium. Fifty microliters (50 μL) of diluted compounds were added into each well (i.e., another 3-fold dilution). The final concentration of test compounds was 10 μM. The cells were incubated for 72 hours after addition of the test compounds. • MTS: Added 20 μL of MTS solution (Promega Cat #G5430) into each well and incubated for 4 hours. • Calculation: % of inhibition+(AVE zero ctrl−AVE compound)/AVE zero ctrl*100.
# OVCAR-3 cells = experiment: Cell proliferation study, inhibition of OVCAR-3 cells (MTS); format: cell-based; details: Homo sapiens, 72 hours, read-out: Inhibition Rate %
# Protocol: Inhibition of OVCAR-3 Cells
# as §2, with “OVCAR-3” for “PC-3”, “4,” for “unknown,”, “RPMI-1640” for “DMEM”, “Cat#22400121)” for “Cat#11995073)”, “2,000” for “3,000”
# LNCaP cells = experiment: Cell proliferation study, inhibition of LNCaP cells (MTS); format: cell-based; details: Homo sapiens, 72 hours, read-out: Inhibition Rate %
# Protocol: Inhibition of LNCaP Cells
# as §2, with “LNCaP,” for “PC-3 cells,”, “RPMI-1640” for “DMEM”, “Cat#22400121)” for “Cat#11995073)”
# Jurkat cells = experiment: Cell proliferation study, inhibition of Jurkat cells (MTS); format: cell-based; details: Homo sapiens, 72 hours, read-out: Inhibition Rate %
# Protocol: Inhibition of Jurkat Cells
# as §2, with “Jurkat” for “PC-3”, “RPMI-1640” for “DMEM”, “Cat#22400121)” for “Cat#11995073)”, “serum(Hyclone” for “serum (Hyclone”, “5,000” for “3,000”
# MDA-MB-468 cells = experiment: Cell proliferation study, inhibition of MDA-MB-468 cells (MTS); format: cell-based; details: Homo sapiens, 72 hours, read-out: Inhibition Rate %
# Protocol: Inhibition of MDA-MB-468 Cells
# as §2, with “MDA-MB-468” for “PC-3”, “RPMI-1640” for “DMEM”, “Cat#22400121)” for “Cat#11995073)”, “2,000” for “3,000”
# HCT116 cells = experiment: Cell proliferation study, inhibition of HCT116 cells (MTS); format: cell-based; details: Homo sapiens, 72 hours, read-out: Inhibition Rate %
# Protocol: Inhibition of HCT116 Cells
# as §2, with “• Cells: HCT116 cells, ATCC” for “• Cells: PC-3 cells, ATCC”, “• Seeding: 750 cells/well (100” for “• Seeding: 3,000 cells/well (100”, “hours. • Measurement: Absorbance at 490 nm using MD Spectramax Plus 384 spectrophotometer. • Calculation: %” for “hours. • Calculation: %”
# [4] = target: T1, Enzyme (kinases of Table 30) (Homo sapiens, UniProt P78368); experiment: IC50 of Compound (nM) (ATP present at Km of enzyme), Table 30; format: biochemical; details: CK1γ2(h), ATP present at Km of enzyme
# T1 construct: IC50 of Compound, CK1γ2(h); other: CK1γ2(h), ATP present at Km of enzyme
# T1 sequence (P78368 whole entry): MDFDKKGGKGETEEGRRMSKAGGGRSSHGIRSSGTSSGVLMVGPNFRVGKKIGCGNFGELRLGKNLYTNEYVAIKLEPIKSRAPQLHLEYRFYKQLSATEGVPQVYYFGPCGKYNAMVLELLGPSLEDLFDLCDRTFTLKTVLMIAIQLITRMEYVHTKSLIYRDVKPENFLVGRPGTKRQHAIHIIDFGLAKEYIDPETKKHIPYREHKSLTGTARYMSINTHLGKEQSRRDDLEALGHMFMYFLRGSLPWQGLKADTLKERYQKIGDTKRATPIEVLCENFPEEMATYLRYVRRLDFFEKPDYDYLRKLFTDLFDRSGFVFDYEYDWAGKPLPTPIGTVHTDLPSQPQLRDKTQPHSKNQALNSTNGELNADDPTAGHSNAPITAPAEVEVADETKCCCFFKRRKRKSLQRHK
# [5] = target: Enzyme (kinases of Table 30) (Homo sapiens, UniProt P11309); experiment: as above; format: biochemical; details: Pim-1(h), ATP present at Km of enzyme; read-out: IC50 of Compound, Pim-1(h)
# Sequence of Enzyme (kinases of Table 30) (Homo sapiens, UniProt P11309) (P11309 whole entry): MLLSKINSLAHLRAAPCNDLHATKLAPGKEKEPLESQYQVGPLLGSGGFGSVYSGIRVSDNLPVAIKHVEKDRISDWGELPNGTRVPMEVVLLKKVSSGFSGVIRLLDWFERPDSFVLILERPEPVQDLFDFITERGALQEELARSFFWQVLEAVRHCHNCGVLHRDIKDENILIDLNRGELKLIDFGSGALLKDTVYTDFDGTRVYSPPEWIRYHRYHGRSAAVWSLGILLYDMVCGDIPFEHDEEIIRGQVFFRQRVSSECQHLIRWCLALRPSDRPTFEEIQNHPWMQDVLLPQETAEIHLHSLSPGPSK
# [6] = target: T2, Enzyme (kinases of Table 30) (Homo sapiens, UniProt P68400); experiment: as above; format: biochemical; details: CK2(h), ATP present at Km of enzyme
# T2 construct: IC50 of Compound, CK2(h); other: CK2(h), ATP present at Km of enzyme
# T2 sequence (P68400 whole entry): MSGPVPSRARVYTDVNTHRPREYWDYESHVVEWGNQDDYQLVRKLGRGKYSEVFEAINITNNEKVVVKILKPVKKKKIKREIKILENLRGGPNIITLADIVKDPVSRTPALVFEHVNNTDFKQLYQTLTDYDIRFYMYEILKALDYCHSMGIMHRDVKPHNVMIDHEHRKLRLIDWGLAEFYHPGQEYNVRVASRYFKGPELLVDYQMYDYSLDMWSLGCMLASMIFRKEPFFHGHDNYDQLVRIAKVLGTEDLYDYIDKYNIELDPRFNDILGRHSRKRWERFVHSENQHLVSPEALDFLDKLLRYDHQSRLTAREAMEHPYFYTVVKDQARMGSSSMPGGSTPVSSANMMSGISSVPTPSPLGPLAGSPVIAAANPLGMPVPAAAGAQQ
# [7] = target: Enzyme (kinases of Table 30) (Homo sapiens, UniProt Q86V86); experiment: as above; format: biochemical; details: Pim-3(h), ATP present at Km of enzyme; read-out: IC50 of Compound, Pim-3(h)
# [8] = target: Enzyme (kinases of Table 30) (Homo sapiens, UniProt Q9P1W9); experiment: as above; format: biochemical; details: Pim-2(h), ATP present at Km of enzyme; read-out: IC50 of Compound, Pim-2(h)
# Sequence of Enzyme (kinases of Table 30) (Homo sapiens, UniProt Q9P1W9) (Q9P1W9 whole entry): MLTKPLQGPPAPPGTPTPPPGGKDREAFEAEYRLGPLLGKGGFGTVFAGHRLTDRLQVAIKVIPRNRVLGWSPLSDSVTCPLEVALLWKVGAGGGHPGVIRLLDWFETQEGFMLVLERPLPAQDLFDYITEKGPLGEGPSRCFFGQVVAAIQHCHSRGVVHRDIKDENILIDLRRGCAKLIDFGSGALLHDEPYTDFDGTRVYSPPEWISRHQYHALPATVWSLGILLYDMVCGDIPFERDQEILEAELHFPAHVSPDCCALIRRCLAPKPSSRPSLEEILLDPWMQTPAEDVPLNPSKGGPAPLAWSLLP
# [9] = target: Enzyme (kinases of Table 29) (Homo sapiens, UniProt P78368); experiment: Percent Activity of Enzyme When Treated with 300 nM of Compound (ATP present at Km of enzyme), Table 29; format: biochemical; details: CK1γ2(h)
# Sequence of Enzyme (kinases of Table 29) (Homo sapiens, UniProt P78368) (P78368 whole entry): as the sequence (P78368 whole entry) above
# [10] = test system: Enzyme (kinases of Table 29); experiment: as above; format: biochemical
# [11] = target: Enzyme (kinases of Table 30); experiment: IC50 of Compound (nM) (ATP present at Km of enzyme), Table 30; format: biochemical; details: ATP present at Km of enzyme
smiles,measurement,setting,value
C[C@@H]1C[C@H]2[C@@H]3CCC4=CC(=O)C=C[C@]4(C)[C@@]3(F)[C@@H](O)C[C@]2(C)[C@@]1(O)C(=O)CO [Dexamethasone],"% remaining after incubation, Rat Microsomes","[1]; Sprague-Dawley, rat, microsomes, 1 h, 1 μM",91%
same,"% remaining after incubation, Human Microsomes","[2]; human, microsomes, 1 h, 1 μM",85%
same,Mass Retention R,[3],9%
"Nc1ccn([C@@H]2O[C@H](CO)[C@@H](O)C2(F)F)c(=O)n1 [Gemcitabine, gemcitabine]",inhibition at 1.2 µM,PC-3 cells; positive control 1.2 μM,6.5%
same,inhibition at 3.7 µM,PC-3 cells; positive control 3.7 μM,6.7%
same,inhibition at 11.1 µM,PC-3 cells; positive control 11.1 μM,20.9%
same,inhibition at 33.3 µM,PC-3 cells; positive control 33.3 μM,47.4%
same,inhibition at 100 µM,PC-3 cells; positive control 100 μM,55.7%
same,inhibition at 300 µM,PC-3 cells; positive control 300 μM,79.5%
same,inhibition at 1.2 µM,OVCAR-3 cells; positive control 1.2 μM,18.2%
same,inhibition at 3.7 µM,OVCAR-3 cells; positive control 3.7 μM,25%
same,inhibition at 11.1 µM,OVCAR-3 cells; positive control 11.1 μM,31.5%
same,inhibition at 33.3 µM,OVCAR-3 cells; positive control 33.3 μM,40.8%
same,inhibition at 100 µM,OVCAR-3 cells; positive control 100 μM,85.1%
same,inhibition at 300 µM,OVCAR-3 cells; positive control 300 μM,87%
same,inhibition at 1.2 µM,LNCaP cells; positive control 1.2 μM,14.5%
same,inhibition at 3.7 µM,LNCaP cells; positive control 3.7 μM,60.9%
same,inhibition at 11.1 µM,LNCaP cells; positive control 11.1 μM,90.2%
same,inhibition at 33.3 µM,LNCaP cells; positive control 33.3 μM,92.9%
same,inhibition at 100 µM,LNCaP cells; positive control 100 μM,90.7%
same,inhibition at 300 µM,LNCaP cells; positive control 300 μM,90.1%
same,inhibition at 1.2 µM,Jurkat cells; positive control 1.2 μM,17.4%
same,inhibition at 3.7 µM,Jurkat cells; positive control 3.7 μM,63.9%
same,inhibition at 11.1 µM,Jurkat cells; positive control 11.1 μM,84.7%
same,inhibition at 33.3 µM,Jurkat cells; positive control 33.3 μM,105%
same,inhibition at 100 µM,Jurkat cells; positive control 100 μM,106%
same,inhibition at 300 µM,Jurkat cells; positive control 300 μM,104%
same,inhibition at 1.2 µM,MDA-MB-468 cells; positive control 1.2 μM,16.4%
same,inhibition at 3.7 µM,MDA-MB-468 cells; positive control 3.7 μM,31.2%
same,inhibition at 11.1 µM,MDA-MB-468 cells; positive control 11.1 μM,80.7%
same,inhibition at 33.3 µM,MDA-MB-468 cells; positive control 33.3 μM,91.7%
same,inhibition at 100 µM,MDA-MB-468 cells; positive control 100 μM,88.8%
same,inhibition at 300 µM,MDA-MB-468 cells; positive control 300 μM,94.9%
same,inhibition at 1.2 µM,"HCT116 cells; HCT-116, positive control 1.2 μM",50.1%
same,inhibition at 3.7 µM,"HCT116 cells; HCT-116, positive control 3.7 μM",79.3%
same,inhibition at 11.1 µM,"HCT116 cells; HCT-116, positive control 11.1 μM",85.6%
same,inhibition at 33.3 µM,"HCT116 cells; HCT-116, positive control 33.3 μM",85.6%
same,inhibition at 100 µM,"HCT116 cells; HCT-116, positive control 100 μM",85.4%
same,inhibition at 300 µM,"HCT116 cells; HCT-116, positive control 300 μM",87.6%
C[C@]12CC[C@H]3[C@@H](CCC4=CC(=O)CC[C@@]43C)[C@@H]1CC[C@@H]2O [Testosterone],"% remaining after incubation, Rat Microsomes","[1]; 1 μM compound, 0.2 mg/mL protein, NADPH regenerating system, 60 minutes",0.6%
same,"% remaining after incubation, Human Microsomes","[2]; 1 μM compound, 0.4 mg/mL protein, NADPH regenerating system, 60 minutes",42%
O=C1NC(=O)/C(=C/c2ccnc(N3CCC(c4nc(-c5ccncc5)no4)CC3)n2)S1 [compound 86],IC50,[4],86 nM
O=C1NC(=O)/C(=C/c2ccnc(N3CCC(c4c[nH]c5ccccc45)CC3)n2)S1 [compound 94],IC50,[4],38 nM
Nc1cccc2c1CCN(c1nccc(/C=C3\SC(=O)NC3=O)n1)C2 [compound 120],IC50,[5],170 nM
same,IC50,[6],214 nM
same,IC50,[4],676 nM
same,IC50,[7],271 nM
same,IC50,[8],225 nM
COc1cccc2ccc(CNCC3CCN(c4nccc(/C=C5\SC(=O)NC5=O)n4)CC3)nc12 [compound 189],IC50,[5],4 nM
same,IC50,[6],364 nM
same,IC50,[4],164 nM
same,IC50,[7],4 nM
same,IC50,[8],9 nM
"CN(C)CCOc1cc(/C=C2\SC(=O)NC2=O)nc(N2CCN(S(=O)(=O)c3ccccc3)CC2)n1 [compound 214, (Z)-5-((6-(2-(dimethylamino)ethoxy)-2-(4-(phenylsulfonyl)piperazin-1-yl)pyrimidin-4-yl)methylene)thiazolidine-2,4-dione]","Percent Activity of Enzyme, CK1γ2(h)",[9],41%
same,"Percent Activity of Enzyme, CK1(y)",[10]; CK1(y),79%
same,"Percent Activity of Enzyme, CK2(h)",[10]; CK2(h),77%
same,"Percent Activity of Enzyme, Pim-1(h)",[10]; Pim-1(h),25%
same,"Percent Activity of Enzyme, Pim-2(h)",[10]; Pim-2(h),13%
same,"Percent Activity of Enzyme, Pim-3(h)",[10]; Pim-3(h),16%
same,IC50,"[11]; Pim-1(h), read-out: IC50 of Compound, Pim-1(h)",95 nM
same,IC50,"[11]; Pim-2(h), read-out: IC50 of Compound, Pim-2(h)",35 nM
same,IC50,"[11]; Pim-3(h), read-out: IC50 of Compound, Pim-3(h)",60 nM
